{
  "source": "ChEMBL document CHEMBL1124625",
  "about": "“Flavones. 2. Synthesis and structure-activity relationship of flavodilol and its analogues, a novel class of antihypertensive agents with catecholamine depleting properties” (J Med Chem, 1989)",
  "key": {"[1]": {"tested_on": "Rattus norvegicus", "experiment": "% decrease in adrenal epinephrine in anesthetized spontaneously hypertensive rats(SHR) at 3 hours after administration of 150 mg/kg dose perorally", "assay_type": "functional", "conditions": "route oral"}, "[2]": {"tested_on": "Rattus norvegicus", "experiment": "% decrease in adrenal epinephrine in anesthetized spontaneously hypertensive rats(SHR) at 24 hours after administration of 150 mg/kg dose perorally", "assay_type": "functional", "conditions": "route oral"}, "[3]": {"tested_on": "Rattus norvegicus", "experiment": "% decrease in brain norepinephrine in anesthetized spontaneously hypertensive rats(SHR) at 3 hours after administration of 150 mg/kg dose perorally", "assay_type": "functional", "conditions": "route oral"}, "[4]": {"tested_on": "Rattus norvegicus", "experiment": "% decrease in heart norepinephrine in anesthetized spontaneously hypertensive rats(SHR) at 24 hours after administration of 150 mg/kg dose perorally", "assay_type": "functional", "conditions": "route oral"}, "[5]": {"tested_on": "Rattus norvegicus", "experiment": "% decrease in heart norepinephrine in anesthetized spontaneously hypertensive rats(SHR) at 24 hours after administration of 35 mg/kg dose perorally; value significantly different was control", "assay_type": "functional", "conditions": "route oral"}, "[6]": {"tested_on": "Rattus norvegicus", "experiment": "% decrease in heart norepinephrine in anesthetized spontaneously hypertensive rats(SHR) at 7 hours after administration of 150 mg/kg dose perorally;", "assay_type": "functional", "conditions": "route oral"}, "[7]": {"tested_on": "Rattus norvegicus", "experiment": "Systolic blood pressure (SBP) in anesthetized spontaneously hypertensive rats(SHR) before administration of 17 mg/kg dose perorally", "assay_type": "functional", "conditions": "route oral"}, "[8]": {"tested_on": "Rattus norvegicus", "experiment": "% decrease in brain norepinephrine in anesthetized spontaneously hypertensive rats(SHR) at 24 hours after administration of 150 mg/kg dose perorally", "assay_type": "functional", "conditions": "route oral"}, "[9]": {"tested_on": "Rattus norvegicus", "experiment": "% decrease in brain norepinephrine in anesthetized spontaneously hypertensive rats(SHR) at 7 hours after administration of 150 mg/kg dose perorally", "assay_type": "functional", "conditions": "route oral"}, "[10]": {"tested_on": "Rattus norvegicus", "experiment": "% decrease in systolic blood pressure (SBP) in anesthetized spontaneously hypertensive rats(SHR) after administration of 150 mg/kg dose perorally", "conditions": "route oral"}, "[11]": {"target": "Adrenergic receptor beta (Rattus norvegicus, UniProt P18090+P10608+P26255)", "description": "Inhibition constant from beta adrenergic receptor binding assay"}, "[12]": {"tested_on": "Rattus norvegicus", "experiment": "% decrease in adrenal epinephrine in anesthetized spontaneously hypertensive rats(SHR) at 24 hours after administration of 75 mg/kg dose perorally", "assay_type": "functional", "conditions": "route oral"}, "[13]": {"tested_on": "Rattus norvegicus", "experiment": "% decrease in brain norepinephrine in anesthetized spontaneously hypertensive rats(SHR) at 24 hours after administration of 75 mg/kg dose perorally", "assay_type": "functional", "conditions": "route oral"}, "[14]": {"tested_on": "Rattus norvegicus", "experiment": "% decrease in adrenal epinephrine in anesthetized spontaneously hypertensive rats(SHR) at 7 hours after administration of 150 mg/kg dose perorally", "assay_type": "functional", "conditions": "route oral"}, "[15]": {"tested_on": "Rattus norvegicus", "experiment": "% decrease in brain norepinephrine in anesthetized spontaneously hypertensive rats(SHR) at 1 hours after administration of 150 mg/kg dose perorally", "assay_type": "functional", "conditions": "route oral"}, "[16]": {"tested_on": "Rattus norvegicus", "experiment": "% decrease in brain norepinephrine in anesthetized spontaneously hypertensive rats(SHR) at 24 hours after administration of 35 mg/kg dose perorally", "assay_type": "functional", "conditions": "route oral"}, "[17]": {"tested_on": "Rattus norvegicus", "experiment": "% decrease in systolic blood pressure (SBP) in anesthetized spontaneously hypertensive rats(SHR) after administration of 75 mg/kg dose perorally", "conditions": "route oral"}, "[18]": {"tested_on": "Rattus norvegicus", "experiment": "% decrease in heart norepinephrine in anesthetized spontaneously hypertensive rats(SHR) at 24 hours after administration of 75 mg/kg dose perorally", "assay_type": "functional", "conditions": "route oral"}, "[19]": {"tested_on": "Rattus norvegicus", "experiment": "% decrease in adrenal epinephrine in anesthetized spontaneously hypertensive rats(SHR) at 24 hours after administration of 35 mg/kg dose perorally", "assay_type": "functional", "conditions": "route oral"}, "[20]": {"tested_on": "Rattus norvegicus", "experiment": "% decrease in adrenal epinephrine in anesthetized spontaneously hypertensive rats(SHR) at 1 hours after administration of 150 mg/kg dose perorally", "assay_type": "functional", "conditions": "route oral"}, "[21]": {"tested_on": "Rattus norvegicus", "experiment": "% decrease in heart norepinephrine in anesthetized spontaneously hypertensive rats(SHR) at 1 hours after administration of 150 mg/kg dose perorally", "assay_type": "functional", "conditions": "route oral"}, "[22]": {"tested_on": "Rattus norvegicus", "experiment": "Systolic blood pressure (SBP) in anesthetized spontaneously hypertensive rats (SHR) before administration of 75 mg/kg dose perorally.", "assay_type": "functional", "design": "unit: mmHg", "conditions": "route oral"}, "[23]": {"tested_on": "Rattus norvegicus", "experiment": "Systolic blood pressure (SBP) in anesthetized spontaneously hypertensive rats(SHR) at 7.5 hours after administration of 75 mg/kg dose perorally", "assay_type": "functional", "conditions": "route oral"}, "[24]": {"tested_on": "Rattus norvegicus", "experiment": "Systolic blood pressure (SBP) in anesthetized spontaneously hypertensive rats(SHR) at 7.5 hours after administration of 17 mg/kg dose, perorally; percentage falls in systolic blood pressure were not statistically signific ant", "assay_type": "functional, organism-based", "design": "dose 17 mg/kg", "conditions": "Artery"}, "[25]": {"tested_on": "Rattus norvegicus", "experiment": "% decrease in heart norepinephrine in anesthetized spontaneously hypertensive rats(SHR) at 3 hours after administration of 150 mg/kg dose perorally", "assay_type": "functional", "conditions": "route oral"}, "[26]": {"species": "Cavia porcellus", "experiment": "Inhibition of the isoproterenol response at a dose of 1 x 10e -4M in guinea pig; slight inhibition was found", "assay_type": "functional, organism-based"}, "[27]": {"tested_on": "Rattus norvegicus", "experiment": "Systolic blood pressure (SBP) in anesthetized spontaneously hypertensive rats(SHR) at 7.5 hours after administration of 35 mg/kg dose perorally", "assay_type": "functional", "conditions": "route oral"}},
  "note": "Active and inactive are the calls of the source. No cut-off for these calls is given here.",
  "data": [
    {"smiles": "CC(C)NCC(O)COc1ccc2c(=O)cc(-c3ccccc3)oc2c1", "note": "(configuration not stated)", "values": [
      {"measurement": "Decrease", "setting": "[1]", "value": 4, "unit": "%"},
      {"measurement": "Decrease", "setting": "[2]", "value": 39, "unit": "%"},
      {"measurement": "Decrease", "setting": "[3]", "value": 2, "unit": "%"},
      {"measurement": "Decrease", "setting": "[4]", "value": 100, "unit": "%"},
      {"measurement": "Decrease", "setting": "[5]", "value": 57, "unit": "%"},
      {"measurement": "Decrease", "setting": "[6]", "value": 100, "unit": "%"},
      {"measurement": "Systolic blood pressure", "setting": "[7]", "value": 203},
      {"measurement": "Decrease", "setting": "[8]", "value": 14, "unit": "%"},
      {"measurement": "Decrease", "setting": "[9]", "value": 10, "unit": "%"},
      {"measurement": "% decrease SBP", "setting": "[10]", "value": 33, "unit": "%"},
      {"measurement": "Ki", "setting": "[11]", "value": 12, "unit": "µM"},
      {"measurement": "Decrease", "setting": "[12]", "value": 23, "unit": "%"},
      {"measurement": "Decrease", "setting": "[13]", "value": 2, "unit": "%"},
      {"measurement": "Decrease", "setting": "[14]", "value": 16, "unit": "%"},
      {"measurement": "Decrease", "setting": "[15]", "value": 0, "unit": "%"},
      {"measurement": "Decrease", "setting": "[16]", "value": -4, "unit": "%"},
      {"measurement": "% decrease SBP", "setting": "[17]", "value": 16, "unit": "%"},
      {"measurement": "Decrease", "setting": "[18]", "value": 100, "unit": "%"},
      {"measurement": "Decrease", "setting": "[19]", "value": 17, "unit": "%"},
      {"measurement": "Decrease", "setting": "[20]", "value": 10, "unit": "%"},
      {"measurement": "Decrease", "setting": "[21]", "value": 40, "unit": "%"},
      {"measurement": "Systolic blood pressure", "setting": "[22]", "value": 208},
      {"measurement": "Decrease in Systolic blood pressure", "setting": "[23]", "value": 27, "unit": "%"},
      {"measurement": "Decrease in Systolic blood pressure", "setting": "[24]", "value": "inactive"},
      {"measurement": "Decrease", "setting": "[25]", "value": 71, "unit": "%"},
      {"measurement": "Activity", "setting": "[26]", "value": "Weak activity"},
      {"measurement": "Decrease in Systolic blood pressure", "setting": "[27]", "value": 21, "unit": "%"}
    ]}
  ]
}
